{"source": "patent US6413952B1", "about": "“Agonizing dimeric cell-surface receptors with a receptor binding moiety and chelating metal” (SmithKline Beecham Corporation, priority 1997, dated 2002)", "key": {"G-CSF receptor [1]": {"target": "T1, G-CSF receptor (Mus musculus, UniProt P40223)", "T1 construct": "they express endogenous G-CSF receptors; endogenous in cells; host or cells: NFS60 murine myeloid cell line with a G-CSF-responsive luciferase reporter", "T1 sequence (P40223 26-837)": "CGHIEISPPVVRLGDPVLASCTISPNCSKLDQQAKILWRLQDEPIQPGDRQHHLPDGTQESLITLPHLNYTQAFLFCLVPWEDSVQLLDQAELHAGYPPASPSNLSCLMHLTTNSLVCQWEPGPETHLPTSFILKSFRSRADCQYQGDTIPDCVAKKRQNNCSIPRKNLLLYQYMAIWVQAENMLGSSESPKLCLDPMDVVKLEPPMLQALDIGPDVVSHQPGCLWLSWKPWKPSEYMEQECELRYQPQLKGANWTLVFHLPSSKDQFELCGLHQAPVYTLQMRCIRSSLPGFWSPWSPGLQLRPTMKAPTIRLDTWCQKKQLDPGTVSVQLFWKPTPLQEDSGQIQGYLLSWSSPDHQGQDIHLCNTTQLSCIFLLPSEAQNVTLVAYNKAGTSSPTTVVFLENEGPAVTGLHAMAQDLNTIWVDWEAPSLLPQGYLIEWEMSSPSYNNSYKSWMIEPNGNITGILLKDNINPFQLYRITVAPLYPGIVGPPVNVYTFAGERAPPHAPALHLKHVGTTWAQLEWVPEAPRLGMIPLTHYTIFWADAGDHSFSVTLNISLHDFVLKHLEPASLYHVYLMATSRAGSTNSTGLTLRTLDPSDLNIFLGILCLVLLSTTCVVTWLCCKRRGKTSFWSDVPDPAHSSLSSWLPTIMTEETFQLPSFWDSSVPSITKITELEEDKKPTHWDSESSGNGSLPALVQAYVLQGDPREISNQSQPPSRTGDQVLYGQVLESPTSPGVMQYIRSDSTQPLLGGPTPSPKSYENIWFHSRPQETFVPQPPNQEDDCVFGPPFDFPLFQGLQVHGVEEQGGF", "test": "Luciferase reporter gene assay on G-CSF-responsive NFS60 cell line", "assay_type": "cell-based, murine", "settings": "NFS60 cells, absence of zinc (FIG. 1)", "method": "Activity of compound 1a is below the threshold of 150% over background. The study was performed as a Luciferase assay configured on the G-CSF-responsive NFS60 cell line as described in Tian et al., Science 281, 257-259 (1998). The experiments shown in FIGS. 2-8 used the same NFS60 cell line.\nCompounds of the present invention are tested for potency as agonist of a dimeric cell-surface receptor in a Luciferase reporter gene assay such as described in Tian et al., Science 281, 257-259 (1998). For example, for G-CSF NFS60 cells (Holmes, et al., Proc. Natl. Acad. Sci. USA 82: 6687-6691 (1985)) are selected because they express endogenous G-CSF receptors closely matching the pattern of STAT (signal transducers and activators of transcription) activation observed in primary murine and human bone marrow cells."}, "G-CSF receptor [2]": {"target": "T1, G-CSF receptor", "test": "Luciferase assay on NFS60 cells in the presence of EDTA / metal chlorides", "assay_type": "cell-based, murine", "settings": "for effect of EDTA on agonist (luciferase) activity: EDTA 1.2 and 5 millimolar, media contained 1-5 uM zinc(II) (FIGS. 3, 4)", "method": "FIG. 3 is an analysis of the effect of ethylenediaminetetraacetic acid (as used herein—EDTA) on the activity of Compound 1a (from Example 1) in NFS60 cells. Shown are luciferase response curves of Compound 1a at the indicated concentrations and in the presence of various concentrations of EDTA. […] The media in this assay contained a small amount (1-5 uM) of zinc(II).\nFIG. 4 is an analysis of the effect of EDTA on the activity of recombinant G-CSF on NFS60 cells. Shown are luciferase response curves of recombinant G-CSF at the indicated concentrations and in the presents of various concentrations of EDTA. EDTA at both 1.2 and 5 millimolar has little effect on the activity of recombinant G-CSF in the assay.\nFIGS. 5 and 6 depict an analysis of the activity of metal chlorides alone on the basal luciferase level of NFS60 cells. Shown are luciferase response curves of the indicated metal chlorides at various concentrations. None of the metals have a meaningful effect on the basal luciferase levels at concentrations equal or less than 10 micromolar.\nFIGS. 7 and 8 show an analysis of the effect of metal chlorides on the EDTA depleted activity of Compound 1a on NFS60 cells. Shown are luciferase response curves as effected by the indicated metal chlorides. […] None of the other metals tested could overcome the inhibitory effect of EDTA.\nIn order to determine the requisiteness of metal chelation of small organic molecules to agonist activity at dimeric cell-surface receptors, the above luciferase assay was performed on the G-CSF receptor in the presence of EDTA. EDTA is a strong metal chelator and had as its only effect, the removal of zinc and other metals from the ligand-receptor interaction."}}, "note": "Entries after “also recorded” stand apart in the source; their conditions may differ."}
{"molecule": "c1ccc(C23NC(=Nc4nc5ccccc5[nH]4)NC2(c2ccccn2)NC(=Nc2nc4ccccc4[nH]2)N3)nc1", "note": "(stereo not shown) [Compound 1a, 2,5-Bis[2-benzimidazolylimino]-3a,6a-bis(2-pyridyl)-1,2,3,3a,4,5,6,6a-octahydroimidazo[4,5-d]imidazole]", "values": [{"measurement": "luciferase activity over background", "setting": "G-CSF receptor [1]", "value": "< 150", "unit": "%"}, {"measurement": "effect of EDTA on agonist (luciferase) activity", "setting": "G-CSF receptor [2]", "value": "antagonized the activity; also recorded: abrogated"}]}
{"molecule": "zinc (II) [reference compound]", "values": [{"measurement": "effect of metal chlorides on the EDTA depleted luciferase activity of Compound 1a", "setting": "G-CSF receptor [2]; 50 micromolar EDTA, metal 0.5-10 micromolar (FIGS. 7, 8)", "value": "can overcome the inhibition in luciferase activity"}]}
{"molecule": "recombinant G-CSF: the natural ligand (i.e. G-CSF or recombinant G-CSF) of the G-CSF receptor (protein, UniProt P09919 31-207, looked up) Granulocyte …: TPLGPASSLPQSFLLKCLEQVRKIQGDGAALQEKLVSECATYKLCHPEELVLLGHSLGIPWAPLSSCPSQALQLAGCLSQLHSGLFLYQGLLQALEGISPELGPTLDTLQLDVADFATTIWQQMEELGMAPALQPTQGAMPAFASAFQRRAGGVLVASHLQSFLEVSYRVLRHLAQP", "values": [{"measurement": "effect of EDTA on agonist (luciferase) activity", "setting": "G-CSF receptor [2]", "value": "little effect; also recorded: not mediated by metal ions"}]}
